Our source for the EC50 values is patent publication US20230087342A1, “AZEPANE DERIVATIVE” (Nippon Chemiphar Co., Ltd., priority 2019, published 2023).

In this assay the target is T1, human κ opioid receptors (Homo sapiens, UniProt P41145).
T1 construct: host or cells: CHO cells
In words: Opioid receptor function test (Lance Ultra cAMP kit, agonist activity). In kind it is cell-based. The following applies: CHO cells expressing human κ opioid receptors, 10 μM forskolin, 30 minutes. Summed up: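 CHO cells expressing human κ opioid receptor incubated 30 min with test compound (10^−14 to 10^−7 M) and 10 μM forskolin in HSS/5 mM HEPES pH 7.4 with 0.5 mM IBMX and 0.1% SA. cAMP measured by TR-FRET (Lance Ultra) 1 h after detection reagent addition.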

T1 sequence (P41145 whole entry): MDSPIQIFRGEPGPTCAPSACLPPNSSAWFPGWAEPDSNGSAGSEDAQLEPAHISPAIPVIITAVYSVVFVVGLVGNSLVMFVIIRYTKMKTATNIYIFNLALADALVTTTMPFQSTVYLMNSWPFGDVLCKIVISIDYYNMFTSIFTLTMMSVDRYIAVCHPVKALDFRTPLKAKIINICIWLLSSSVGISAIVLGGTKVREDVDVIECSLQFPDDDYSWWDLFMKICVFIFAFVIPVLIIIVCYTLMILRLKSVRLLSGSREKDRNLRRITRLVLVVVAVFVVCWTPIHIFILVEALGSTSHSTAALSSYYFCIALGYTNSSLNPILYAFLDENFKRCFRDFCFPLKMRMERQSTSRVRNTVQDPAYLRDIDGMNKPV

Consider `Cc1cc2c(cc1O)[C@@]13CCN(C(=O)Cc4cn5ccccc5n4)CC[C@@]1(O)[C@@H](C2)N(CC1CC1)CC3` [Example 314, 1-((5aS,6R,11bR)-14-(cyclopropylmethyl)-5a,10-dihydroxy-9-methyl-1,2,5,5a,6,7-hexahydro-6,11b-(epiminoethano)naphtho[1,2-d]azepin-3(4H)-yl)-2-(imidazo[1,2-a]pyridin-2-yl)ethan-1-one], for which it took 0.27 nM to reach a half-maximal effect (EC50).
For `Oc1ccc2c(c1)[C@@]13CCN(CCCc4ccccn4)CC[C@@]1(O)[C@@H](C2)N(CC1CC1)CC3` [Example 69, (5aS,6R,11bS)-14-(cyclopropylmethyl)-3-(3-(pyridin-2-yl)propyl)-2,3,4,5,6,7-hexahydro-6,11b-(epiminoethano)naphtho[1,2-d]azepine-5a,10(1H)-diol], the EC50 came to 0.28 nM.
Then `Cc1cnn(CCN2CC[C@]34CCN(CC5(O)CC5)[C@H](Cc5ccc(O)cc53)[C@]4(O)CC2)c1` [Example 225, (5aS,6R,11bS)-14-((1-hydroxycyclopropyl)methyl)-3-(2-(4-methyl-1H-pyrazol-1-yl)ethyl)-2,3,4,5,6,7-hexahydro-6,11b-(epiminoethano)naphtho[1,2-d]azepine-5a,10(1H)-diol], with 0.11 nM.
Then `Cc1cnn(CC(=O)N2CC[C@]34CCN(CC5CC5)[C@H](Cc5ccc(O)cc53)[C@]4(O)CC2)c1` [Example 49, 1-((5aS,6R,11bR)-14-(cyclopropylmethyl)-5a,10-dihydroxy-1,2,5,5a,6,7-hexahydro-6,11b-(epiminoethano)naphtho[1,2-d]azepin-3(4H)-yl)-2-(4-methyl-1H-pyrazol-1-yl)ethan-1-one], with 0.089 nM; and `Cn1nc(CCN2CC[C@]34CCN(CC5CC5)[C@H](Cc5ccc(O)cc53)[C@]4(O)CC2)cc1C(F)(F)F` [Example 37, (5aS,6R,11bS)-14-(cyclopropylmethyl)-3-(2-(1-methyl-5-(trifluoromethyl)-1H-pyrazol-3-yl)ethyl)-2,3,4,5,6,7-hexahydro-6,11b-(epiminoethano)naphtho[1,2-d]azepine-5a,10(1H)-diol], with 0.051 nM.
Consider `Oc1ccc2c(c1)[C@@]13CCN(CCc4cc5ccccc5cn4)CC[C@@]1(O)[C@@H](C2)N(CC1CC1)CC3` [Example 123, (5aS,6R,11bS)-14-(cyclopropylmethyl)-3-(2-(isoquinolin-3-yl)ethyl)-2,3,4,5,6,7-hexahydro-6,11b-(epiminoethano)naphtho[1,2-d]azepine-5a,10(1H)-diol], for which the 50% effective concentration (EC50) stood at 0.064 nM.
Then `Cc1ccnn1CCN1CC[C@]23CCN(CC4CC4)[C@H](Cc4ccc(O)cc42)[C@]3(O)CC1` [Example 52, (5aS,6R,11bS)-14-(cyclopropylmethyl)-3-(2-(5-methyl-1H-pyrazol-1-yl)ethyl)-2,3,4,5,6,7-hexahydro-6,11b-(epiminoethano)naphtho[1,2-d]azepine-5a,10(1H)-diol], with 0.15 nM; and `Cc1cnn(CCN2CC[C@]34CCN(CC5CC5)[C@H](Cc5ccc(O)cc53)[C@]4(O)CC2(C)C)c1` [Example 270, (5aS,6R,11bR)-14-(cyclopropylmethyl)-4,4-dimethyl-3-(2-(4-methyl-1H-pyrazol-1-yl)ethyl)-2,3,4,5,6,7-hexahydro-6,11b-(epiminoethano)naphtho[1,2-d]azepine-5a,10(1H)-diol], with 0.052 nM; and `CCc1cnn(CCN2CC[C@]34CCN(CC5CC5)[C@H](Cc5ccc(O)cc53)[C@]4(O)CC2)c1` [Example 193, (5aS,6R,11bS)-14-(cyclopropylmethyl)-3-(2-(4-ethyl-1H-pyrazol-1-yl)ethyl)-2,3,4,5,6,7-hexahydro-6,11b-(epiminoethano)naphtho[1,2-d]azepine-5a,10(1H)-diol], with 0.035 nM.
As for `O=C(CN1CCC(F)(F)C1)N1CC[C@]23CCN(CC4CC4)[C@H](Cc4ccc(O)cc42)[C@]3(O)CC1` [Example 181, 1-((5aS,6R,11bR)-14-(cyclopropylmethyl)-5a,10-dihydroxy-1,2,5,5a,6,7-hexahydro-6,11b-(epiminoethano)naphtho[1,2-d]azepin-3(4H)-yl)-2-(3,3-difluoropyrrolidin-1-yl)ethan-1-one], the EC50 was found to be 0.32 nM.
`Cn1cnc(CCN2CC[C@]34CCN(CC5CC5)[C@H](Cc5ccc(O)cc53)[C@]4(O)CC2)c1` [Example 41, (5aS,6R,11bS)-14-(cyclopropylmethyl)-3-(2-(1-methyl-1H-imidazol-4-yl)ethyl)-2,3,4,5,6,7-hexahydro-6,11b-(epiminoethano)naphtho[1,2-d]azepine-5a,10(1H)-diol] showed an EC50 of 0.13 nM.
The value for `Cc1ccn(CCN2CC[C@]34CCN(CC5CC5)[C@H](Cc5ccc(O)cc53)[C@]4(O)CC2)c1` [Example 166, (5aS,6R,11bS)-14-(cyclopropylmethyl)-3-(2-(3-methyl-1H-pyrrol-1-yl)ethyl)-2,3,4,5,6,7-hexahydro-6,11b-(epiminoethano)naphtho[1,2-d]azepine-5a,10(1H)-diol] was 0.31 nM; that for `Oc1ccc2c(c1)[C@@]13CCN(CCc4ccco4)CC[C@@]1(O)[C@@H](C2)N(CC1CC1)CC3` [Example 32, (5aS,6R,11bS)-14-(cyclopropylmethyl)-3-(2-(furan-2-yl)ethyl)-2,3,4,5,6,7-hexahydro-6,11b-(epiminoethano)naphtho[1,2-d]azepine-5a,10(1H)-diol] was 0.13 nM.
The molecule `Cc1cnn(C[C@@H](CO)N2CC[C@]34CCN(CC5CC5)[C@H](Cc5ccc(O)cc53)[C@]4(O)CC2)c1` [Example 234, (5aS,6R,11bS)-14-(cyclopropylmethyl)-3-((S)-1-hydroxy-3-(4-methyl-1H-pyrazol-1-yl)propan-2-yl)-2,3,4,5,6,7-hexahydro-6,11b-(epiminoethano)naphtho[1,2-d]azepine-5a,10(1H)-diol] showed an EC50 of 0.087 nM.
As for `Oc1ccc2c(c1)[C@@]13CCN(CCN4CCC(F)(F)C4)CC[C@@]1(O)[C@@H](C2)N(CC1CC1)CC3` [Example 182, (5aS,6R,11bS)-14-(cyclopropylmethyl)-3-(2-(3,3-difluoropyrrolidin-1-yl)ethyl)-2,3,4,5,6,7-hexahydro-6,11b-(epiminoethano)naphtho[1,2-d]azepine-5a,10(1H)-diol], a half-maximal response (EC50) required 0.22 nM.
Turning to `CCC1C[C@@]2(O)[C@H]3Cc4ccc(O)cc4[C@]2(CCN1C(=O)Cc1ccccn1)CCN3CC1CC1` (stereo partly drawn) [Example 347, 1-((5aS,6R,11bR)-14-(cyclopropylmethyl)-4-ethyl-5a,10-dihydroxy-1,2,5,5a,6,7-hexahydro-6,11b-(epiminoethano)naphtho[1,2-d]azepin-3(4H)-yl)-2-(pyridin-2-yl)ethan-1-one], the EC50 was determined as 0.12 nM.
Regarding `Oc1ccc2c(c1)[C@@]13CCN(CCc4ncccc4F)CC[C@@]1(O)[C@@H](C2)N(CC1CC1)CC3` [Example 100, (5aS,6R,11bS)-14-(cyclopropylmethyl)-3-(2-(3-fluoropyridin-2-yl)ethyl)-2,3,4,5,6,7-hexahydro-6,11b-(epiminoethano)naphtho[1,2-d]azepine-5a,10(1H)-diol], it took 0.26 nM to reach a half-maximal effect (EC50).
As to `Cc1cnn(CCN2CC[C@]34CCN(CC5(C)CC5)[C@H](Cc5ccc(O)cc53)[C@]4(O)CC2)c1` [Example 221, (5aS,6R,11bS)-3-(2-(4-methyl-1H-pyrazol-1-yl)ethyl)-14-((1-methylcyclopropyl)methyl)-2,3,4,5,6,7-hexahydro-6,11b-(epiminoethano)naphtho[1,2-d]azepine-5a,10(1H)-diol], the EC50 came out at 0.034 nM.
The value for `Oc1ccc2c(c1)[C@@]13CCN(CCn4cc(F)cn4)CC[C@@]1(O)[C@@H](C2)N(CC1CC1)CC3` [Example 184, (5aS,6R,11bS)-14-(cyclopropylmethyl)-3-(2-(4-fluoro-1H-pyrazol-1-yl)ethyl)-2,3,4,5,6,7-hexahydro-6,11b-(epiminoethano)naphtho[1,2-d]azepine-5a,10(1H)-diol] was 0.095 nM.
The value for `Cc1cc2c(cc1O)[C@@]13CCN(C(=O)Cn4cc(C(F)(F)F)cn4)CC[C@@]1(O)[C@@H](C2)N(CC1CC1)CC3` [Example 329, 1-((5aS,6R,11bR)-14-(cyclopropylmethyl)-5a,10-dihydroxy-9-methyl-1,2,5,5a,6,7-hexahydro-6,11b-(epiminoethano)naphtho[1,2-d]azepin-3(4H)-yl)-2-(4-(trifluoromethyl)-1H-pyrazol-1-yl)ethan-1-one] was 0.084 nM; that for `Oc1ccc2c(c1)[C@@]13CCN(CCn4cc(C(F)(F)F)cn4)CC[C@@]1(O)[C@@H](C2)N(CC1CC1)CC3` [Example 144, (5aS,6R,11bS)-14-(cyclopropylmethyl)-3-(2-(4-(trifluoromethyl)-1H-pyrazol-1-yl)ethyl)-2,3,4,5,6,7-hexahydro-6,11b-(epiminoethano)naphtho[1,2-d]azepine-5a,10(1H)-diol] was 0.019 nM.
Take `Cc1cnn(CCN2CC[C@]34CCN(C[C@@H]5C[C@@H]5F)[C@H](Cc5ccc(O)cc53)[C@]4(O)CC2)c1` [Example 219, (5aS,6R,11bS)-14-(((1S,2S)-2-fluorocyclopropyl)methyl)-3-(2-(4-methyl-1H-pyrazol-1-yl)ethyl)-2,3,4,5,6,7-hexahydro-6,11b-(epiminoethano)naphtho[1,2-d]azepine-5a,10(1H)-diol]: the EC50 is 0.23 nM.
In turn, `Oc1ccc2c(c1)[C@]13CCN(CC4CC4)[C@H](C2)[C@]1(O)CCCN(CCc1ccccn1)C3` [Example 137, (5aS,6R,11bS)-14-(cyclopropylmethyl)-2-(2-(pyridin-2-yl)ethyl)-2,3,4,5,6,7-hexahydro-6,11b-(epiminoethano)naphtho[1,2-c]azepine-5a,10(1H)-diol] registered an EC50 of 0.14 nM.
With `CC1(C)C[C@@]2(O)[C@H]3Cc4ccc(O)cc4[C@@]2(CCN3CC2CC2)CCN1C(=O)Cc1ccccn1` [Example 343, 1-((5aS,6R,11bR)-14-(cyclopropylmethyl)-5a,10-dihydroxy-4,4-dimethyl-1,2,5,5a,6,7-hexahydro-6,11b-(epiminoethano)naphtho[1,2-d]azepin-3(4H)-yl)-2-(pyridin-2-yl)ethan-1-one], the response was half-maximal at 0.56 nM (EC50).
